# Measurements as given in ChEMBL document CHEMBL4414598, “Trifluorinated Pyrimidine-Based A2B Antagonists: Optimization and Evidence of Stereospecific Recognition” (J Med Chem, 2019).
# pKi: −log10 of the molar value.
# Key:
# [1] = biological target: T1, Adenosine receptor A2a (Homo sapiens, UniProt P29274); assay: Displacement of [3H]ZM241385 from human recombinant A2A receptor expressed in human HeLa cell membranes incubated for 30 mins by radioligand binding competition assay
# [2] = biological target: T2, Adenosine receptor A3 (Homo sapiens, UniProt P0DMS8); assay: Displacement of [3H]NECA from human A3 receptor expressed in human HeLa cell membranes incubated for 180 mins by radioligand binding competition assay
# T2 sequence (P0DMS8 whole entry): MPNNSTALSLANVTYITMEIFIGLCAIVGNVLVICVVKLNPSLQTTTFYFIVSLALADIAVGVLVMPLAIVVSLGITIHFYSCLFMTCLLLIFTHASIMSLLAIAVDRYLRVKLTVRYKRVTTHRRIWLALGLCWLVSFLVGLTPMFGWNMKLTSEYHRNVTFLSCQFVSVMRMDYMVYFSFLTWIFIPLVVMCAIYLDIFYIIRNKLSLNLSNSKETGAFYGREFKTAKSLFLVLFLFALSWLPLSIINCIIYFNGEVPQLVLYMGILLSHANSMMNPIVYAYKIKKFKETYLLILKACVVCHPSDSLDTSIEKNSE
# [3] = biological target: T1, Adenosine receptor A2a; assay: Displacement of [3H]ZM241385 from human recombinant A2A receptor expressed in human HeLa cell membranes at 1 uM incubated for 30 mins by radioligand binding competition assay relative to control
# [4] = biological target: T3, Adenosine receptor A1 (Homo sapiens, UniProt P30542); assay: Displacement of [3H]DPCPX from human recombinant A1 receptor expressed in CHOA1 cell membranes incubated for 60 mins by radioligand binding competition assay
# T3 sequence (P30542 whole entry): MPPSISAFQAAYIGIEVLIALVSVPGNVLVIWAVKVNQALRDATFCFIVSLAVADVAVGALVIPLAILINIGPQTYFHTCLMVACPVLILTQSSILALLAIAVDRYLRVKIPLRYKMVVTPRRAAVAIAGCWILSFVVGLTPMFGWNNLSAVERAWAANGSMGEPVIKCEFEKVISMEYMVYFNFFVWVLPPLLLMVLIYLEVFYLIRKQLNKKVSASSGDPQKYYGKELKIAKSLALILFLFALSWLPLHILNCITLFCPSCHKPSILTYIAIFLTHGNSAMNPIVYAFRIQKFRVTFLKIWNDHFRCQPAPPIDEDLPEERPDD
# [5] = biological target: T4, Adenosine receptor A1 (Homo sapiens) (UniProt P30542); assay: Displacement of [3H]DPCPX from human recombinant A1 receptor expressed in CHOA1 cell membranes at 1 uM incubated for 60 mins by radioligand binding competition assay relative to control
# T4 sequence (whole entry): T3 sequence (P30542 whole entry)
# [6] = biological target: T5, Adenosine receptor A3 (Homo sapiens) (UniProt P0DMS8); assay: Displacement of [3H]NECA from human A3 receptor expressed in human HeLa cell membranes at 1 uM incubated for 180 mins by radioligand binding competition assay relative to control
# T5 sequence (whole entry): T2 sequence (P0DMS8 whole entry)
# [7] = biological target: T6, Adenosine receptor A2b (Homo sapiens, UniProt P29275); assay: Displacement of [3H]DPCPX from human recombinant A2B receptor expressed in human HEK293 cell membranes incubated for 30 mins by radioligand binding competition assay
# T6 sequence (P29275 whole entry): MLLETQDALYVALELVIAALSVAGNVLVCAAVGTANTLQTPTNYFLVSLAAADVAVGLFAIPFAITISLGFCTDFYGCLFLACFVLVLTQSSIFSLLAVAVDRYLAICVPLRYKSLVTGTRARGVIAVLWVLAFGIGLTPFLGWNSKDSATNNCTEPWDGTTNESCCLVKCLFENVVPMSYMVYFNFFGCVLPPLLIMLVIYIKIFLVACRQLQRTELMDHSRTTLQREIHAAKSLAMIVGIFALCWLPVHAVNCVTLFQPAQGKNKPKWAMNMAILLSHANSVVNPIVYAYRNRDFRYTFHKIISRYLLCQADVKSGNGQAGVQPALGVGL
# [8] = species: Homo sapiens; assay: Selectivity index, ratio of Ki for displacement of [3H]DPCPX from human recombinant A1 receptor expressed in CHOA1 cell membranes incubated for 60 mins by radioligand binding competition assay to Ki for displacement of [3H]DPCPX from human recombinant A2B receptor expressed in human HEK293 cell membranes at 1 uM incubated for 30 mins by radioligand binding competition assay
# [9] = species: Homo sapiens; assay: Selectivity index, ratio of Ki for displacement of [3H]ZM241385 from human recombinant A2A receptor expressed in human HeLa cell membranes incubated for 30 mins by radioligand binding competition assay to Ki for displacement of [3H]DPCPX from human recombinant A2B receptor expressed in human HEK293 cell membranes at 1 uM incubated for 30 mins by radioligand binding competition assay
# [10] = species: Homo sapiens; assay: Selectivity index, ratio of Ki for displacement of [3H]NECA from human A3 receptor expressed in human HeLa cell membranes incubated for 180 mins by radioligand binding competition assay to Ki for displacement of [3H]DPCPX from human recombinant A2B receptor expressed in human HEK293 cell membranes at 1 uM incubated for 30 mins by radioligand binding competition assay
# [11] = biological target: T7, Adenosine receptor A2b (Homo sapiens) (UniProt P29275); assay: Displacement of [3H]DPCPX from human recombinant A2B receptor expressed in human HEK293 cell membranes at 1 uM incubated for 30 mins by radioligand binding competition assay relative to control
# T7 sequence (whole entry): T6 sequence (P29275 whole entry)
# T1 sequence (P29274 whole entry): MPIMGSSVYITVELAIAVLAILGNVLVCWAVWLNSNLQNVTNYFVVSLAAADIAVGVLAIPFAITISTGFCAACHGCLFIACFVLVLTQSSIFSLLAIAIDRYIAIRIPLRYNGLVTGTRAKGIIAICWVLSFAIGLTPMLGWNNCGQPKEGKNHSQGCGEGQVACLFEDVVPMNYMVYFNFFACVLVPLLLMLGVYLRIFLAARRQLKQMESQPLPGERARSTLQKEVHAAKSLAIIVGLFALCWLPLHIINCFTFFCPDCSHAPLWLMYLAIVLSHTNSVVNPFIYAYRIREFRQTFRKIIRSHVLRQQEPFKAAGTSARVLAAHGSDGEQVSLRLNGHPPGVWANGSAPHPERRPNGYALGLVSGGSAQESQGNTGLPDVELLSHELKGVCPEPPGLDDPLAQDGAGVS
compound,measurement,setting,value
CC1=C(C(=O)OC(C)C)C(c2ccco2)n2c(nc3ccccc32)N1 (stereo not drawn),pKi,[1],7.55
same,pKi,[2],8.70
same,inhibition,[3],28%
same,pKi,[4],7.70
same,inhibition,[5],20%
same,inhibition,[6],2%
CC1=C(C(=O)O[C@@H](C)C(F)(F)F)[C@@H](c2ccco2)n2c(nc3ccccc32)N1,pKi,[7],8.06
same,inhibition,[3],5%
same,inhibition,[5],22%
same,inhibition,[6],21%
CC1=C(C(=O)OCC(F)(F)F)[C@@H](c2ccco2)n2c(nc3ccccc32)N1,pKi,[7],7.95
same,inhibition,[3],1%
same,inhibition,[5],9%
same,inhibition,[6],7%
CC1=C(C(=O)O[C@H](C)C(F)(F)F)[C@@H](c2ccco2)n2c(nc3ccccc32)N1,pKi,[7],8.16
same,inhibition,[3],1%
same,inhibition,[5],12%
same,inhibition,[6],14%
CCOC(=O)C1=C(C(F)(F)F)Nc2nc3ccccc3n2[C@@H]1c1ccoc1,pKi,[7],7.86
same,inhibition,[3],9%
same,inhibition,[5],11%
same,inhibition,[6],3%
CC1=C(C(=O)O[C@@H](C)C(F)(F)F)C(c2ccco2)n2c(nc3ccccc32)N1 (mixture of isomers),pKi,[7],7.82
same,inhibition,[3],1%
same,inhibition,[5],26%
same,inhibition,[6],7%
CC1=C(C(=O)O[C@H](C)C(F)(F)F)C(c2ccco2)n2c(nc3ccccc32)N1 (mixture of isomers),pKi,[7],7.77
same,inhibition,[3],11%
same,inhibition,[5],12%
same,inhibition,[6],23%
CC(C)OC(=O)C1=C(C(F)(F)F)Nc2nc3ccccc3n2C1c1ccoc1 (racemic),pKi,[7],7.31
same,inhibition,[3],23%
same,Ratio Ki,[8],> 1000
same,Ratio Ki,[9],> 1000
same,Ratio Ki,[10],> 1000
same,inhibition,[5],8%
same,inhibition,[6],23%
CC1=C(C(=O)OCC(F)(F)F)C(c2ccoc2)NC(=O)N1 (racemic),pKi,[7],6.23
same,inhibition,[3],9%
same,inhibition,[5],13%
same,inhibition,[6],1%
CC1=C(C(=O)OCC(F)(F)F)C(c2ccco2)NC(=O)N1 (racemic),pKi,[7],6.80
same,inhibition,[3],1%
same,inhibition,[5],10%
same,inhibition,[6],1%
CC1=C(C(=O)OC(C)C(F)(F)F)C(c2ccco2)n2c(nc3ccccc32)N1 (racemic),pKi,[7],7.53
same,inhibition,[3],4%
same,inhibition,[5],3%
same,inhibition,[6],18%
CCOC(=O)C1=C(C(F)(F)F)Nc2nc3ccccc3n2C1c1ccoc1 (racemic),pKi,[7],7.43
same,inhibition,[3],18%
same,inhibition,[5],9%
same,inhibition,[6],6%
CCOC(=O)C1=C(C(F)(F)F)NC(=O)NC1c1ccsc1 (racemic),pKi,[7],6.24
same,inhibition,[3],46%
same,inhibition,[5],32%
same,inhibition,[6],3%
CCOC(=O)C1=C(C(F)(F)F)NC(=O)NC1c1ccoc1 (racemic),pKi,[7],6.28
same,inhibition,[3],55%
same,inhibition,[5],37%
same,inhibition,[6],1%
CC1=C(C(=O)OCC(F)(F)F)C(c2ccco2)n2c(nc3ccccc32)N1 (racemic),pKi,[7],7.57
same,inhibition,[3],7%
same,inhibition,[5],16%
same,inhibition,[6],23%
CCOC(=O)C1=C(C(F)(F)F)Nc2nc3ccccc3n2C1c1ccco1 (racemic),pKi,[7],6.14
same,inhibition,[3],4%
same,inhibition,[5],11%
same,inhibition,[6],20%
CCOC(=O)C1=C(C(F)(F)F)Nc2nc3ccccc3n2C1c1ccsc1 (racemic),pKi,[7],6.93
same,inhibition,[3],13%
same,inhibition,[5],16%
same,inhibition,[6],29%
CC(C)OC(=O)C1=C(C(F)(F)F)NC(=O)NC1c1ccco1 (racemic),pKi,[7],6.62
same,inhibition,[3],24%
same,inhibition,[5],11%
same,inhibition,[6],5%
CC1=C(C(=O)OCC(F)(F)F)C(c2ccoc2)n2c(nc3ccccc32)N1 (racemic),pKi,[7],7.38
same,inhibition,[3],11%
same,Ratio Ki,[8],> 1000
same,Ratio Ki,[9],> 1000
same,Ratio Ki,[10],> 1000
same,inhibition,[5],14%
same,inhibition,[6],1%
CC1=C(C(=O)OC(C)C(F)(F)F)C(c2ccoc2)n2c(nc3ccccc32)N1 (racemic),pKi,[7],7.28
same,inhibition,[3],3%
same,Ratio Ki,[8],> 1000
same,Ratio Ki,[9],> 1000
same,Ratio Ki,[10],> 1000
same,inhibition,[5],2%
same,inhibition,[6],3%
CC(C)OC(=O)C1=C(C(F)(F)F)NC(=O)NC1c1ccsc1 (racemic),pKi,[7],6.19
same,inhibition,[3],9%
same,inhibition,[5],23%
same,inhibition,[6],3%
CC1=C(C(=O)OC(C)C(F)(F)F)C(c2ccco2)NC(=O)N1 (stereo in doubt; 14i-D1),pKi,[7],7.21
CC1=C(C(=O)OC(C)C(F)(F)F)C(c2ccco2)NC(=O)N1 (stereo in doubt; 14i-D2),pKi,[7],6.52
CC1=C(C(=O)OC(C)C(F)(F)F)C(c2ccoc2)NC(=O)N1 (stereo in doubt; 14j-D1),pKi,[7],6.63
CC1=C(C(=O)OC(C)C(F)(F)F)C(c2ccsc2)NC(=O)N1 (stereo in doubt; 14l-D1),pKi,[7],6.19
CC1=C(C(=O)OC(C)C(F)(F)F)C(c2ccsc2)NC(=O)N1 (stereo in doubt; 14l-D2),inhibition,[3],2%
same,inhibition,[11],1%
same,inhibition,[5],3%
same,inhibition,[6],1%
